Data published in patent publication US7247634B2, “Rifamycin derivatives effective against drug-resistant microbes” (Cumbre Pharmaceuticals Inc., priority 2004, dated 2007).
Converted amounts (≈) assume the structure as drawn.

How the values were obtained:
Assay type in all cases: cell-based
[1] = system: Staphylococcus aureus ATCC29213; assay: MIC, microbroth dilution (NCCLS); conditions: rifS strain, Cation-Adjusted Mueller-Hinton Broth, 37° C., read-out: Antimicrobial activity (MIC)
[2] = system: Staphylococcus aureus ATCC29213 rpoB^D417Y; assay: microbe, parasite or virus in culture; conditions: ATCC29213, read-out: Antimicrobial activity (MIC)
Description: (§1) Representative compounds were assayed for antimicrobial activity as follows: Minimum Inhibitory Concentrations (“MICs”) were determined by the microbroth dilution method as per NCCLS guidelines (National Committee for Clinical Laboratory Standards. 2000. Methods for dilution antimicrobial susceptibility tests for bacteria that grow aerobically, 5th ed. M7-A5. National Committee for Clinical Laboratory Standards, Wayne, Pa.), except that all growth incubations were conducted at 37° C. Bacterial cultures were tested in the following bacteriological media: S. aureus, S. epidermidis, and E. coli in Cation-Adjusted Mueller-Hinton Broth, S. pneumoniae in THY Broth supplemented with 1 mg/mL catalase under 5% CO2 atmosphere, S. pyogenes in THY Broth, E. faecalis in BHI Broth, H. influenzae in BHI Broth supplemented with 0.75 μL of 1 mg/mL NAD and 150 μL of 1 mg/ml hematin per 5 mL, and M. smegmatis in Middlebrook Broth plus ADC Enrichment.
(§2) S. aureus ATCC 29213 RpoB^H418Y is a rifampin-resistant strain with a mutation in RNA polymerase, the biological target of rifamycin antibiotics. […] S. aureus EN1252a gyrA^S84L grlA^S80F is a quinolone-resistant strain due to double mutations to DNA gyrase and topoisomerase IV, the two biological targets for quinolone antibiotics.

[3] = system: Staphylococcus aureus ATCC29213 rpoB^H418Y; assay: microbe, parasite or virus in culture; conditions: ATCC29213, read-out: Antimicrobial activity (MIC)
Description: as §1, §2

[4] = system: Staphylococcus aureus EN1252a gyrA^S84L grlA^S80F; assay: microbe, parasite or virus in culture; conditions: read-out: Antimicrobial activity (MIC)
Description: as §1, §2

[5] = system: Staphylococcus epidermidis ATCC12228; assay: MIC, microbroth dilution (NCCLS); conditions: rifS strain, Cation-Adjusted Mueller-Hinton Broth, 37° C., read-out: Antimicrobial activity (MIC)
[6] = system: Streptococcus pneumoniae ATCC6303; assay: MIC, microbroth dilution (NCCLS); conditions: rifS strain, THY Broth with 1 mg/mL catalase, 5% CO2, 37° C., read-out: Antimicrobial activity (MIC)
[7] = system: Streptococcus pyogenes ATCC19615; assay: MIC, microbroth dilution (NCCLS); conditions: rifS strain, THY Broth, 37° C., read-out: Antimicrobial activity (MIC)
[8] = system: Enterococcus faecalis ATCC29212; assay: MIC, microbroth dilution (NCCLS); conditions: rifS strain, BHI Broth, 37° C., read-out: Antimicrobial activity (MIC)
[9] = system: Haemophilus influenzae ATCC10211; assay: MIC, microbroth dilution (NCCLS); conditions: rifS strain, BHI Broth with NAD and hematin, 37° C., read-out: Antimicrobial activity (MIC)
[10] = system: Escherichia coli ATCC25922; assay: MIC, microbroth dilution (NCCLS); conditions: rifS strain, Cation-Adjusted Mueller-Hinton Broth, 37° C., read-out: Antimicrobial activity (MIC)
[11] = system: Mycobacterium smegmatis ATCC700084; assay: MIC, microbroth dilution (NCCLS); conditions: Mycolicibacterium smegmatis, rifS strain, Middlebrook Broth plus ADC Enrichment, 37° C., read-out: Antimicrobial activity (MIC)

With `COc1c(N2CCCC(NC(=O)C3CN(C4=C5NC(=O)/C(C)=C\C=C\[C@H](C)[C@H](O)[C@@H](C)[C@@H](O)[C@@H](C)[C@H](OC(C)=O)[C@H](C)[C@@H](OC)/C=C/O[C@@]6(C)Oc7c(C)c(O)c(c(c7C6=O)C4=O)C5=O)C3)C2)c(F)cc2c(=O)c(C(=O)O)cn(C3CC3)c12` (mixture of isomers) [Example 46, 3-{3-[1-(3-Carboxy-1-cyclopropyl-6-fluoro-8-methoxy-4-oxo-1,4-dihydroquinolin-7-yl)-piperidin-3-ylcarbamoyl]-azetidin-1-yl}rifamycin S] the MIC [1] was 0.004 to 0.5 µg/mL, the MIC [2] was 0.06 to 32 µg/mL and the MIC [3] was 0.06 to 16 µg/mL. For the same molecule, the MIC [4] was 0.004 to 0.5 µg/mL, the MIC [5] was 0.008 to 0.063 µg/mL and the MIC [6] was 0.008 to 0.125 µg/mL. The MIC [7] was 0.008 to 0.063 µg/mL, the MIC [8] was 2 to 32 µg/mL and the MIC [9] was 0.125 to 2 µg/mL. The MIC [10] was 0.125 to 8 µg/mL and the MIC [11] was 0.5 to 64 µg/mL.

With `CO[C@H]1/C=C/O[C@@]2(C)Oc3c(C)c(O)c4c(c3C2=O)C(=O)C(NC2CCN(c3c(F)cc5c(=O)c(C(=O)O)cn(C6CC6)c5c3Cl)C2)=C(NC(=O)/C(C)=C\C=C\[C@H](C)[C@H](O)[C@@H](C)[C@@H](O)[C@@H](C)[C@H](OC(C)=O)[C@@H]1C)C4=O` (mixture of isomers) [Example 7, (R/S)-3-[1-(3-Carboxy-8-chloro-1-cyclopropyl-6-fluoro-4-oxo-1,4-dihydroquinolin-7-yl)-pyrrolidin-3-ylamino]rifamycin S] the MIC [1] was 0.004 to 0.5 µg/mL (≈ 0.00378 to 0.472 µM), the MIC [2] was 0.06 to 32 µg/mL (≈ 0.0566 to 30.2 µM) and the MIC [3] was 0.06 to 16 µg/mL (≈ 0.0566 to 15.1 µM). It also gave an MIC [4] of 0.004 to 0.5 µg/mL (≈ 0.00378 to 0.472 µM), an MIC [5] of 0.008 to 0.063 µg/mL (≈ 0.00755 to 0.0595 µM) and an MIC [6] of 0.008 to 0.125 µg/mL (≈ 0.00755 to 0.118 µM). For the same molecule, the MIC [7] was 0.008 to 0.063 µg/mL (≈ 0.00755 to 0.0595 µM), the MIC [8] was 2 to 32 µg/mL (≈ 1.89 to 30.2 µM) and the MIC [9] was 0.125 to 2 µg/mL (≈ 0.118 to 1.89 µM). The MIC [10] was 0.125 to 8 µg/mL (≈ 0.118 to 7.55 µM) and the MIC [11] was 0.5 to 64 µg/mL.

Work on `CO[C@H]1/C=C/O[C@@]2(C)Oc3c(C)c(O)c4c(O)c(c(CNC5CCN(c6c(F)cc7c(=O)c(C(=O)O)cn(C8CC8)c7c6Cl)C5)c(O)c4c3C2=O)NC(=O)/C(C)=C\C=C\[C@H](C)[C@H](O)[C@@H](C)[C@@H](O)[C@@H](C)[C@H](OC(C)=O)[C@@H]1C` (mixture of isomers) [Example 13, (R/S)-3-[1-(8-Chloro-3-carboxy-1-cyclopropyl-6-fluoro-4-oxo-1,4-dihydroquinolin-7-yl)-pyrrolidinyl-3-aminomethyl]rifamycin SV] yielded an MIC [1] of 0.004 to 0.5 µg/mL (≈ 0.00372 to 0.465 µM), an MIC [2] of 0.06 to 32 µg/mL (≈ 0.0558 to 29.8 µM) and an MIC [3] of 0.06 to 16 µg/mL (≈ 0.0558 to 14.9 µM). It also gave an MIC [4] of 0.004 to 0.5 µg/mL (≈ 0.00372 to 0.465 µM), an MIC [5] of 0.008 to 0.063 µg/mL (≈ 0.00744 to 0.0586 µM) and an MIC [6] of 0.008 to 0.125 µg/mL (≈ 0.00744 to 0.116 µM). For the same molecule, the MIC [7] was 0.008 to 0.063 µg/mL (≈ 0.00744 to 0.0586 µM), the MIC [8] was 2 to 32 µg/mL (≈ 1.86 to 29.8 µM) and the MIC [9] was 0.125 to 2 µg/mL (≈ 0.116 to 1.86 µM). The MIC [10] was 0.125 to 8 µg/mL (≈ 0.116 to 7.44 µM) and the MIC [11] was 0.5 to 64 µg/mL.

Molecule `COc1c(N2CCC(NC3=C4NC(=O)/C(C)=C\C=C\[C@H](C)[C@H](O)[C@@H](C)[C@@H](O)[C@@H](C)[C@H](OC(C)=O)[C@H](C)[C@@H](OC)/C=C/O[C@@]5(C)Oc6c(C)c(O)c(c(c6C5=O)C3=O)C4=O)C2)c(F)cc2c(=O)c(C(=O)O)cn(C3CC3)c12` (mixture of isomers) [Example 27] has an MIC [1] of 0.004 to 0.5 µg/mL (≈ 0.00379 to 0.474 µM), an MIC [2] of 0.06 to 32 µg/mL (≈ 0.0569 to 30.3 µM) and an MIC [3] of 0.06 to 16 µg/mL (≈ 0.0569 to 15.2 µM). The MIC [4] was 0.004 to 0.5 µg/mL (≈ 0.00379 to 0.474 µM), the MIC [5] was 0.008 to 0.063 µg/mL (≈ 0.00758 to 0.0597 µM) and the MIC [6] was 0.008 to 0.125 µg/mL (≈ 0.00758 to 0.118 µM). The MIC [7] was 0.008 to 0.063 µg/mL (≈ 0.00758 to 0.0597 µM), the MIC [8] was 2 to 32 µg/mL (≈ 1.9 to 30.3 µM) and the MIC [9] was 0.125 to 2 µg/mL (≈ 0.118 to 1.9 µM). For the same molecule, the MIC [10] was 0.125 to 8 µg/mL (≈ 0.118 to 7.58 µM) and the MIC [11] was 0.5 to 64 µg/mL.

`COc1c(N2CCC(N(C)C3=C4NC(=O)/C(C)=C\C=C\[C@H](C)[C@H](O)[C@@H](C)[C@@H](O)[C@@H](C)[C@H](OC(C)=O)[C@H](C)[C@@H](OC)/C=C/O[C@@]5(C)Oc6c(C)c(O)c(c(c6C5=O)C3=O)C4=O)C2)c(F)cc2c(=O)c(C(=O)O)cn(C3CC3)c12` (mixture of isomers) [Example 28] was tested, and the MIC [1] was 0.004 to 0.5 µg/mL (≈ 0.00374 to 0.468 µM), the MIC [2] was 0.06 to 32 µg/mL (≈ 0.0561 to 29.9 µM) and the MIC [3] was 0.06 to 16 µg/mL (≈ 0.0561 to 15 µM). For the same molecule, the MIC [4] was 0.004 to 0.5 µg/mL (≈ 0.00374 to 0.468 µM), the MIC [5] was 0.008 to 0.063 µg/mL (≈ 0.00748 to 0.0589 µM) and the MIC [6] was 0.008 to 0.125 µg/mL (≈ 0.00748 to 0.117 µM). The MIC [7] was 0.008 to 0.063 µg/mL (≈ 0.00748 to 0.0589 µM), the MIC [8] was 2 to 32 µg/mL (≈ 1.87 to 29.9 µM) and the MIC [9] was 0.125 to 2 µg/mL (≈ 0.117 to 1.87 µM). The MIC [10] was 0.125 to 8 µg/mL (≈ 0.117 to 7.48 µM) and the MIC [11] was 0.5 to 64 µg/mL.
